Assay [1] deals with vessel development of the FLK1-GFP transgenic danio rerio. The assay can be described thus: Inhibition test on vascular development of Danio rerio. The conditions noted are these: for inhibition at 0.1 µM / inhibition at 1 µM / inhibition at 5 µM / inhibition at 10 µM / inhibition at 20 µM / inhibition at 40 µM / inhibition at 100 µM: Danio rerio, after 24 hours, n = 5, read-out: inhibition rate on the development of vertebral vessel; for inhibition at 0.1 µM: 100 nM; for inhibition effect on the vessel development of the danio rerio (in words): Table 1 and FIG. 7. It counts as in vivo. Here is the method:
Female fish can spawn 200-300 […], and the fertilization and embryonic development processes are conducted in vitro. They can grow up within 24 hours, and the embryo is transparent, which is suitable for observing the change of intracorporal organs and tissues. These characteristics make the danio rerio become to be one of the five fish laboratory animals accepted by the international organization for standardization. Currently, the danio rerio is widely used in human disease studies, especially used in cardiovascular system studies. The danio rerio can be used for screening the influence of small molecular compounds on angiogenesis. Experimental Method: This experiment uses FLK1-GFP transgenic danio rerio as an animal model which is generally used for screening the influence of compounds on angiogenesis. Vessel can be in vivo observed under fluorescence microscope (Suk-Won Jin, 2005, Development). The selected embryo of the postnatal FLK1-GFP transgenic danio rerio was placed into a culture dish and incubated for 3-5 days in an incubator at 28° C. […] Examine the developmental condition of the vertebral vessel after 24 hours and take photo by use of the fluorescence microscope.

In a further assay the target is T1, VEGFR2 (Homo sapiens, UniProt P35968).
T1 construct: endogenous in cells; host or cells: primary HUVECs P3-P5
T1 sequence (P35968 20-1356): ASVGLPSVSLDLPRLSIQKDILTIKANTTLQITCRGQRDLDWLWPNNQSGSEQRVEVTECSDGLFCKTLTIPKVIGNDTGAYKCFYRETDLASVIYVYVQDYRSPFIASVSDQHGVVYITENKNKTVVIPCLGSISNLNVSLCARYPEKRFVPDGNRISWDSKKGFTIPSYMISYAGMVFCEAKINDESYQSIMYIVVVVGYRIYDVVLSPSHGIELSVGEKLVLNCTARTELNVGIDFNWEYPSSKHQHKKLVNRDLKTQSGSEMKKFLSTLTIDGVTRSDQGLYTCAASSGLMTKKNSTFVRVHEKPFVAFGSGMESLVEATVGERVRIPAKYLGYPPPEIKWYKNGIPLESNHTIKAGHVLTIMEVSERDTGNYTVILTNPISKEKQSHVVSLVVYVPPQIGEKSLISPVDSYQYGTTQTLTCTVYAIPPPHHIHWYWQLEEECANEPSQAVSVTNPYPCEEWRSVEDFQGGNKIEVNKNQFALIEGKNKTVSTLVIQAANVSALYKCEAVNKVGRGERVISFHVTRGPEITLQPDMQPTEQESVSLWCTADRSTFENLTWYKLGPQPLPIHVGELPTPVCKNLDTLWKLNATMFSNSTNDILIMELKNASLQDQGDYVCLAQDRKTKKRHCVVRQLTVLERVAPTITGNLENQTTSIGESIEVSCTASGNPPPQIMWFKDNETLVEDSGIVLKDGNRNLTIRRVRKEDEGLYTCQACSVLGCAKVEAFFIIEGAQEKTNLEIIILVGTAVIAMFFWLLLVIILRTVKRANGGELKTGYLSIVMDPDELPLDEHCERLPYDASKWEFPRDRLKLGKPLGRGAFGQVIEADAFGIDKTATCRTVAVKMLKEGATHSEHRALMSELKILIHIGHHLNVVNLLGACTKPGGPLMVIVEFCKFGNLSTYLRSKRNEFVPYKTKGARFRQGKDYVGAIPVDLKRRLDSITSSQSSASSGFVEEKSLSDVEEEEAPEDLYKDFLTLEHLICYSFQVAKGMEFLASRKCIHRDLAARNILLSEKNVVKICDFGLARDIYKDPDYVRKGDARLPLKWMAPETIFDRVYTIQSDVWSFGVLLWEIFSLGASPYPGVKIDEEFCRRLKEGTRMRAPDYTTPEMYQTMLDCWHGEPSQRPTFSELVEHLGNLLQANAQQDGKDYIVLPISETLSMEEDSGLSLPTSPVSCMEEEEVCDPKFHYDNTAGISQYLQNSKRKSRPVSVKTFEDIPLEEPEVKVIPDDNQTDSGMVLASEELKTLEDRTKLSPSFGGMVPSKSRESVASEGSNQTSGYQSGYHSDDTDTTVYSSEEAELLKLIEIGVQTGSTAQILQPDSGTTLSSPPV
The assay can be described thus: In vitro inhibition test on VEGFR2 in HUVECs (anti-phosphorylated VEGFR2 blot). It counts as cell-based. The conditions noted are these: 10 nM, 100 nM and 1 μM, 50 ng/ml VEGF. Here is the method: The experimental method of detecting the inhibition of the compounds of the present invention on VEGFR2 kinase is as follows:
1) The primary cultured human umbilical vein endothelial cells (HUVECs) P3-P5 were transferred to 6 well plate, 2×10^5 cells per well;
2) compounds 2-1, 2-2 and 2-4 of the present invention (the concentrations are 10 nM, 100 nM and 1 μM for each compound) were added when the cells grow to 70-80%, VEGF was a control, incubation for 30 min;
3) 50 ng/ml VEGF (cell Signaling company, US) was added, stimulating for 10 min;
4) nondenature lysis buffer was added to terminate the reaction, and cell lysis buffer was collected to carry out protein quantification;
5) SDS-PAGE electrophoresis, transfer to nitrocellulose membrane, the membrane was cut off and sealed in phosphate tween buffer, TTBS buffer (Tris-buffered saline 0.01% Tween 20, cell Signaling company, US, PH8.0) formulated from 5% skimmed milk for 2 hours; 6) wash the membrane, seal at 4° C. overnight by use of an anti-phosphorylated VEGFR2 antibody (1:1000 dilution, cell Signaling company, US); 7) on the second day after washing membrane, horse radish peroxidase marked goat anti-rabbit second antibody (cell Signaling company, US) was incubated with the membrane at room temperature for 1 hour; 8) develop with chemiluminescence kit (Millipore company) after washing membrane, and take photos.

Usually inhibition stands for the drop in the measured response relative to a control, in per cent.

The structures appear in SMILES notation.

Regarding `O=C(Nc1cccc(C(F)(F)F)c1)c1cccc2nc(Oc3ncnc4c3CNC4)ccc12` [Compound 2-5], in assay [1], the inhibition at 0.1 µM was 0%, the inhibition at 1 µM stood at 0%, the inhibition at 5 µM is 10% and the inhibition at 10 µM was determined as 40%. Further, in assay [1], the inhibition at 20 µM came to 80%, the inhibition at 40 µM amounted to 100%, the inhibition at 100 µM turned out to be 100% and the “inhibition effect on the vessel development of the danio rerio (in words)” value (from here on “inhibition effect”) was “have inhibition effect on the vessel development of the danio rerio”.

Turning to `O=C(Nc1cccc(C(F)(F)F)c1)c1cccc2nc(Oc3ncnc4c3CCNC4)ccc12` [Compound 2-3], in assay [1], the inhibition at 0.1 µM was found to be 0%, the inhibition at 1 µM turned out to be 0%, the inhibition at 5 µM is 0% and the inhibition at 10 µM is 0%. In addition, in assay [1], the inhibition at 20 µM worked out at 0%, the inhibition at 40 µM came out at 5%, the inhibition at 100 µM was 20% and the “inhibition effect” value is given as “have inhibition effect on the vessel development of the danio rerio”.

Consider `CNCc1cc(Oc2ccc3c(C(=O)Nc4cccc(C(F)(F)F)c4)cccc3n2)ncn1` [Compound 2-4], for which the “inhibition of VEGFR2 (in words, FIG. 8)” value on VEGFR2 was “can inhibit VEGFR2”. In assay [1], the inhibition at 0.1 µM stood at 0%, the inhibition at 1 µM stood at 0%, the inhibition at 5 µM was found to be 0% and the inhibition at 10 µM was found to be 0%. For the same compound, in assay [1], the inhibition at 20 µM was determined as 5%, the inhibition at 40 µM amounted to 25%, the inhibition at 100 µM worked out at 70% and the “inhibition effect” value is reported as “have inhibition effect on the vessel development of the danio rerio”.

Take `Cc1ccc(Nc2nccc(N(C)c3ccc4c(C)n(C)nc4c3)n2)cc1S(N)(=O)=O` [Compound 130B, Pazopanib, reference compound]: in assay [1], the inhibition at 0.1 µM is 0%, the inhibition at 1 µM stood at 0%, the inhibition at 5 µM is 85% and the inhibition at 10 µM is 90%. Besides, in assay [1], the inhibition at 20 µM was found to be 95%, the inhibition at 40 µM worked out at 95% and the inhibition at 100 µM stood at 100%.
